The series in a line: gradient 5% acetonitrile 3 min, to 50% in 2 min, to 85% in 15 min, held 3 min, 100 µL/min. The conditions noted are these: column: Zorbax Extend-C18 2.1 x 50 mm; eluents: water / acetonitrile, 0.1% formic acid. An outline of the steps:
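Retention time was recorded from adduct peaks, which were picked computationally and each inspected manually. Pure standards ran in mixtures of ~100 molecules on HPLC coupled to a quadrupole time-of-flight mass spectrometer, in positive and negative ionization mode, through a Zorbax Extend-C18 column (2.1 × 50 mm, 1.8 μm) at 100 μL/min. Eluents were water and acetonitrile, each with 0.1% formic acid.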
As to `CC1CCN(S(=O)(=O)c2ccc(Cl)c(-c3nnc(-c4ccccc4)o3)c2)CC1`, the RP-LC retention time is 1250 s. Then `CC(C)CN1CCN(C(=O)C2CCCN(c3nnc4ccc(C(F)(F)F)cn34)C2)CC1` (stereo unspecified), with 614 s; and `Fc1ccccc1-c1noc(N2CCCCC2)n1`, with 982 s; and `Cc1nnc2n1CCN(C(=O)c1ccc(OC(F)(F)F)cc1)C2`, with 606 s. The value for `O=C(CCc1c(-c2ccc(Cl)cc2)nc2ccccn12)NCCCc1ccccc1` was 719 s; that for `Cc1cccc(Nc2nc(-c3ccc(F)c(C)c3)cs2)n1` was 992 s. Then `COc1ccc(-c2cc3c(=O)n(CC(=O)N4CCCC4)ncn3n2)cc1`, with 746 s; and `O=C(NCCN1CCOCC1)c1cc2cc(Cl)ccc2o1`, with 558 s. For `CN1CCCC1c1nc(C2CN(S(=O)(=O)c3ccc(C#N)cc3)C2)no1` (stereo unspecified), the RP-LC retention time came out at 602 s. In turn, `Cc1ccc(C(=O)Nc2ccc(N3CCN(c4ccccc4)C3=O)nc2)s1` gave an RP-LC retention time of 893 s. As to `COCc1nnc(C(=O)Nc2cccc(C(=O)NCCc3c[nH]c4ccc(OC)cc34)c2)s1`, the RP-LC retention time was found to be 799 s. The value for `Cc1cccn2cc(-c3cccc(S(=O)(=O)N(C)C)c3)nc12` was 620 s. Then `CCC(C)NC(=O)C1CCCN(c2nccn3nc(-c4ccc(C)cc4C)cc23)C1` (stereo unspecified), with 908 s. Then `Cn1cc(CC(=O)NCC#CCN2CCc3ccccc3C2)c2ccccc21`, with 578 s; and `COc1ccccc1-c1nc(C2CC(=O)N(c3ccccc3)C2)no1` (stereo unspecified), with 894 s. With `O=C(NCc1ccc(N2CCCCCC2)nc1)c1cncc(Br)c1`, the RP-LC retention time is 603 s. In the case of `CCCc1noc(-c2ccnc(-n3cnc(C(=O)NC4CCCCCC4)c3)c2)n1`, the RP-LC retention time was 1060 s. The value for `O=C(N/N=C/c1ccc([N+](=O)[O-])o1)c1ccc(O)cc1` was 675 s.

Compound `CCOC(=O)c1ccc(Nc2nc(N3CCCC3)nc(N3CCCC3)n2)cc1` registered an RP-LC retention time of 772 s. Then `O=C(NCc1cccc(F)c1)c1cn2c(n1)CCCC2`, with 584 s; and `CCOc1ccc(Cc2nc(-c3ccc4oc(C)nc4c3)no2)cc1`, with 1250 s. The value for `CC(C)n1c(=O)c2ccccc2n(Cc2nc(-c3ccccc3Cl)no2)c1=O` was 1130 s; that for `O=C(Cc1ccccc1F)N1CCCn2nc(-c3cccs3)cc2C1` was 875 s; that for `CC(=O)c1cccc(NC(=O)Cn2cc3c(n2)CCCCC3)c1` was 821 s.

With `COc1cc(OC)cc(-c2nnc(Cc3nc(-c4ccc(Cl)cc4)no3)o2)c1`, the RP-LC retention time was found to be 1110 s. Then `CC(C)c1ccc(-n2c3c(cc(C(=O)N4CCOCC4)c2=O)C(=O)CCC3)cc1`, with 722 s; and `O=C(NC1CCCCC1)c1nc(-c2cn(-c3ccc(Cl)cc3)nn2)no1`, with 1030 s; and `COCCc1nncn1C1CCN(S(=O)(=O)c2ccccc2C(F)(F)F)CC1`, with 720 s. The value for `CCCNc1cc(N2CCC(CCC(=O)NCc3ccccc3OC)CC2)ncn1` was 684 s; that for `O=C(C1CC1)N1CCc2sc(S(=O)(=O)Nc3cccc(Cl)c3F)cc2C1` was 870 s. Then `CS(=O)(=O)Nc1ccc(C2(C(=O)NCc3ccccc3Cl)CCCCC2)cc1`, with 946 s; and `O=C(NCc1ccccc1Cl)c1coc(NC(=O)c2cccs2)n1`, with 719 s. The compound `O=C(c1cccc(Cl)c1)N1CCN(c2cc(-c3ccc(Cl)cc3)[nH]n2)CC1` returned an RP-LC retention time of 917 s. The value for `O=S(=O)(c1cc(F)cc(F)c1)N1CCCC(Cn2c(C3CC3)nc3cccnc32)C1` (stereo unspecified) was 806 s. The value for `CCOC(=O)C1=C(C)N(CC(=O)NC(C)CC)c2ncnn2C1c1ccc(C)cc1` (stereo unspecified) was 910 s; that for `CN(Cc1ccccc1)C(=O)c1ccc2c(c1)N(CC(=O)N1CCCC1)C(=O)CO2` was 723 s; that for `O=C(C1CCN(c2nc3ccc(-c4cccs4)nc3s2)CC1)N1CCCC1` was 893 s.

The compound `CCN(CC)c1ccc(-c2noc(CN3CCN(c4ccccn4)CC3)n2)cn1` had an RP-LC retention time of 575 s. Then `Cc1ccc(Cn2c(CCCC(=O)N3CCN(c4ncccn4)CC3)nc3cccnc32)cc1`, with 744 s.

As to `Cc1ncc2c(n1)CCCN(CC(=O)N1CCCC1)C2=O`, the RP-LC retention time is 579 s.

In turn, `COc1ccc(NC(=O)N2CCC(n3c(-c4ccco4)nc4cccnc43)C2)cc1Cl` (stereo unspecified) came in with an RP-LC retention time of 753 s. The value for `Cc1nc(-c2csc(S(=O)(=O)N3CCCC(C(=O)NCCN4CCCCCC4)C3)c2)no1` (stereo unspecified) was 665 s; that for `Cc1cn(C)c(CC(=O)NCCN2CCCc3ccccc32)c1C(=O)O` was 792 s. Turning to `COc1ccc(S(=O)(=O)Cc2nc(-c3cccc(C(F)(F)F)c3)no2)cc1`, the RP-LC retention time stood at 1060 s. The value for `Cc1cc(F)ccc1S(=O)(=O)NCCc1ccsc1` was 900 s; that for `CCn1ccc(C(=O)N2CCN(c3nc4cccnc4n(C)c3=O)CC2)n1` was 721 s. The value for `O=C(Cc1cccc(Cl)c1)N1[C@H]2CC[C@@H]1c1cnc(-c3ccccc3)nc1C2` was 990 s.

`Cc1noc(C)c1-c1ccc(S(=O)(=O)Nc2ccc3c(c2)OCCO3)cc1` yielded an RP-LC retention time of 880 s.

Compound `Cc1cc(NC(=O)CSc2nnnn2C)sn1` displayed an RP-LC retention time of 596 s. With `CCCn1c(=O)sc2cc(S(=O)(=O)N3CCC(C(=O)Nc4cccc(C)c4)CC3)ccc21`, the RP-LC retention time is 1010 s. The value for `CCOCCCNC(=O)c1cc2sc(C)cc2n1C` was 861 s; that for `CCCC(=O)Nc1nc(-c2ccc3c(c2)N(C)C(=O)CO3)cs1` was 821 s; that for `O=C(c1ccco1)N1CCc2c(c(CO)nn2Cc2ccccc2)C1` was 657 s. The value for `Cc1nc(-c2cn(C(C)C)c3ncccc23)sc1C(=O)NCc1cccnc1` was 657 s; that for `O=C1c2ccccc2S(=O)(=O)N1CC(O)COc1ccc(Cl)cc1Cl` (stereo unspecified) was 900 s; that for `COc1ccc(CCNC(=O)CSC2=Nc3ccc(C)cc3OC2)cc1OC` was 750 s. Then `COc1cccc(C2Cn3nnc(-c4nc(-c5ccccc5Br)no4)c3CO2)c1` (stereo unspecified), with 1170 s; and `Cc1cc(C)cc(-n2ncc3c(N4CCC(C(N)=O)CC4)ncnc32)c1`, with 724 s; and `COc1ccc2[nH]c(=O)c(CCC(=O)NC3CCN(Cc4ccccc4)CC3)cc2c1`, with 596 s. For the compound `CCOC(=O)c1c(C)c(CCC(=O)NC(C)c2ccc3c(c2)OCCO3)n(C)c1C` (stereo unspecified), the RP-LC retention time was 845 s. Then `Cc1c(C#N)c2ccccc2n1CC(=O)NCc1ccc2c(c1)OCCCO2`, with 856 s.

`O=C(Cn1c(=O)n(C2CCCCC2)c2ncccc21)NCCN1CCOCC1`: the RP-LC retention time worked out at 627 s. On to `CCOC(=O)c1ccc(Nc2c(-c3ccccc3)nc3cnccn23)cc1`, for which the RP-LC retention time worked out at 849 s.

As for `CC(C(=O)NCCCN1CCN(C2CCCCC2)CC1)n1c(=O)c(C(F)(F)F)nc2ccccc21` (stereo unspecified), the RP-LC retention time was determined as 639 s. Then `O=C(NC1CCCCC1)C1CC(=O)N(CCc2c[nH]c3ccc(Cl)cc23)C1` (stereo unspecified), with 817 s; and `COc1ccc(NC(=O)c2cn(-c3cc(N4CCCCC4C)ncn3)cn2)cc1OC` (stereo unspecified), with 939 s. The value for `Cn1c(=O)c(SCC(=O)NCCCc2ccccc2)nc2ccccc21` was 840 s; that for `CC1=C(c2ccc(F)cc2)S(=O)(=O)N=C1N1CCCN(C(=O)NC(C)C)CC1` was 746 s. The value for `COc1ccccc1NC(=O)N1CCC2(C1)C(=O)N(C)c1ccccc12` (stereo unspecified) was 818 s. `CC(C)N1C(=O)C(C)(C(=O)NCc2ccc(Br)cc2)Oc2cccnc21` (stereo unspecified): the RP-LC retention time was 1010 s. Then `O=C1CCCCC(Cc2ccccc2)(C(=O)N2CCc3ccccc3C2)N1` (stereo unspecified), with 836 s; and `FC(F)(F)c1ccc(/C=C/c2nc(COc3ccc(CCCCn4ccnn4)cc3)co2)cc1`, with 1170 s; and `CCc1nc2cc(N3CCC(C(=O)NCCN4CCCCC4C)CC3)cnc2nc1CC` (stereo unspecified), with 605 s. The value for `Cc1ccc(Cn2nc3ccc(S(=O)(=O)N4CCCCCC4)cn3c2=O)cc1C` was 1070 s.

Consider `Cc1[nH]c(=O)[nH]c(=O)c1S(=O)(=O)NC(C)C`, for which the RP-LC retention time was 581 s. The value for `O=C(CCCN1C(=O)C(c2ccccc2)Oc2cccnc21)NCCCN1CCOCC1` (stereo unspecified) was 615 s; that for `CCc1ccc(C2=C(C)C(N3CCC(NC(=O)NCCCOC)CC3)=NS2(=O)=O)cc1` was 739 s; that for `CCCN1C(=O)c2c(C(=O)N(C)Cc3ccccc3)ncn2CC1(C)C(=O)NCc1ccc(C)cc1` (stereo unspecified) was 793 s. `COc1ccc(N2CCN(c3nc(C(=O)NCCN4CCOCC4)cs3)CC2)cc1` displayed an RP-LC retention time of 615 s. Then `COc1ccc(-c2noc(Cc3nnc(-c4ccc(F)cc4)o3)n2)cc1OC`, with 889 s; and `Cc1cc(C)cc(OCCNS(=O)(=O)c2cccs2)c1`, with 935 s.

For the origin of these results see the METLIN SMRT retention time set (Domingo-Almenara et al. 2019).
